How the values were obtained:
[1] = test system: MDA-MB-231 breast cancer cells; test: Mitochondrial membrane potential (JC-1), MDA-MB-231; format: cell-based; settings: MDA-MB-231 cells, 1 μM, 6 h
Method: (§1) Loss of mitochondrial membrane potential (Avm) represents one of the hallmarks of apoptosis. A JC-1 probe was employed to measure mitochondrial depolarization in cancer cells. MDA-MB-231 breast cancer cells were treated with different concentration of test compounds for 6 hours. JC-1 staining solution (5 μg/ml) was added at 37° C. for 20 min. After washing with PBS twice, mitochondrial membrane potentials were monitored by determining the relative amounts of dual emission from a multiple fluorescence reader. The fluorescence in cells was quantitatively analyzed by flow cytometry. Mitochondrial depolarization is depicted by an increase in the green/red fluorescence intensity ratio. ROS were monitored with the oxiadtion-senstive fluorescent probe 2′7′-dichlorodihydroflurescenin diacetate (DCF-DA).
In healthy cells with high Δψwm, JC-1 forms complexes with intense red fluorescence. However, in cells with low Δψm, JC-1 remains in the monomeric form with green fluorescence. Mitochondrial depolarization is depicted by an increase in the green/red fluorescence intensity ratio.

Nur77−/−HeLa cells = test: PARP cleavage and caspase 3 activation, Nur77 knockout HeLa; format: cell-based
Method: (§2) Knocking out Nur77 and Bcl-2 from HeLa cells employed the CRISPR/Cas9 system. gRNA targeting sequence of Nur77 (5′-[…]-3′) and Bcl-2 (5′-[…]-3′) was cloned into gRNA cloning vector Px330 (Addgene, 71707) and confirmed by sequencing. To screen for cells lacking Nur77 or Bcl-2, HeLa cells were transfected with control vector and gRNA expression vectors, followed by G418 selection (0.5mg/m1). Single colonies were subjected to Western blotting using anti-Nur77 and anti-Bcl-2 antibody to select knockout cells.
The apoptotic effect of Compound lwas also evaluated in Nur77 genome knockout HeLa cells generated by CRISPR/Cas9 technology (Example A-5).

Nur77-LBD = molecular target: T1, Nur77-LBD (Homo sapiens, UniProt P22736); test: Surface plasmon resonance (SPR) binding to Nur77-LBD; settings: Nur77-LBD protein, 25° C.
T1 construct: Protein spectra of purified Nur77-LBD at temperature 50° C. and above changed substantially; His (N); made in house
T1 sequence (P22736 360-595 limits assumed): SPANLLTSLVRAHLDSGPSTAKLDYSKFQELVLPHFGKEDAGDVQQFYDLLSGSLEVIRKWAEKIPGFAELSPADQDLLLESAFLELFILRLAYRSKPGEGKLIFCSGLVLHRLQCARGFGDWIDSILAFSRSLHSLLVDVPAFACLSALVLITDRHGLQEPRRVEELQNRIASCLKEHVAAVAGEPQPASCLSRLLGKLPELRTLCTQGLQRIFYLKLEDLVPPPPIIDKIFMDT
Method: The binding kinetics between Nur77-LBD and test compounds was analyzed at 25° C. on a BlAcore T200 machine with CMS chips (GE Healthcare). PBSP was used for all measurements. For SPR measurements, Nur77-LBD proteins were purified. A blank channel was used as negative control. About 10,000 response units of Nur77-LBD were immobilized on the chips. When the data collection was finished in each cycle, the sensor surface was regenerated with Glycine-HCl 2.5. A serial of concentrations ranging from 0.15 to 5.0 μM were designed for the experiment. Sensograms were fit globally with BIAcore T200 analysis using 1:1 Langumuir binding mode.

HeLa cells = test: PARP cleavage assay (Western blotting), HeLa; format: cell-based; settings: 6 hours
From the text: Compound 1a had no effect under the same conditions (FIG. 1A). […] Compound 1a, 28a, 47a, 48a, 73a, 39a, 70a, 103a, 89a and 88a had no effect under the same conditions (FIG. 3B-C).

Bcl-2−/−MEFs = test: PARP cleavage, Bcl-2-/- MEFs; format: cell-based, mouse; settings: 0.5 μM
From the text: (§3) The apoptotic effect of Compound 1 was also examined in mouse embryonic fibroblast (MEF) and MEF lacking Bcl-2 (Bcl-2^−/−MEF). […] Apoptotic cells were counted in 200 cells.

Bcl-2−/− HeLa cells = test: Mitochondrial ROS, Bcl-2 knockout HeLa; format: cell-based
Method: as §1
In addition, Bcl-2^−/−HeLa cells were more resistant than the parental HeLa cells to Compound 1 in its induction of the mitochondrial membrane potential loss measured by JC1 staining and in the release of mitochondrial ROS (as performed in Example A-12).

MDA-MB-231 cancer cells = test: Cell viability (MTT) assay, MDA-MB-231; format: cell-based; settings: Homo sapiens; inhibiting the growth of MDA-MB-231 cancer cells, cell viability assay (Table 6)
Method: Cell viability was analyzed by using a colorimetric 3-(4,5-dimethylthiazol-[…]2-yl)-2,5-diphenyletetrazolium Bromide (MTT) assay that determines mitochondrial dehydrogenase activities in the living cells with a colorimetric method. Cells treated with test compounds were incubated with MTT and their effect on the viability of the cells was assayed by the ability of treated cells to reduce the yellow tetrazolium dye MTT to its insoluble formazan, which has a purple color. […]

Bcl-2−/−MEF cells = test: DAPI staining for apoptosis, Bcl-2-/- MEFs; format: cell-based, mouse; settings: 0.5 μM
From the text: as §3

MDA-MB-231 cells = test: Mitochondrial ROS, MDA-MB-231; format: cell-based; settings: dose dependent, 6 hours
Method: as §1

[2] = test system: non-transfected HEK293T cells; test: Apoptosis in non-transfected HEK293T cells (confocal microscopy); format: cell-based
From the text: The ligand-binding domain (LBD) of Nur77, Nur77-LBD, was transfected into HEK293T cells. Transfection of Nur77-LBD enhanced the apoptotic effect of Compound 1, with 36% of the transfected HEK293T cells undergoing apoptosis, while 4.5% of the non-transfected cells were apoptotic, as measured by confocal microscopy.

Bcl-2−/−HeLa cells = test: PARP cleavage and caspase 3 activation, Bcl-2 knockout HeLa; format: cell-based
Method: as §2
The apoptotic effect of Compound lwas also evaluated in Bcl-2 genome knockout HeLa cells generated by CRISPR/Cas9 technology (Example A-5).

Nur77−/− HeLa cells = test: Mitochondrial ROS, Nur77 knockout HeLa; format: cell-based
Method: as §1
Furthermore, Nur77^−/−HeLa cells were more resistant than the parental HeLa cells to Compound 1 in its induction of the mitochondrial membrane potential loss measured by JC1 staining and in the release of mitochondrial ROS (as performed in Example A-12).

SW620 xenograft tumor = test: SW620 xenograft nude mouse study; format: in vivo, BALB/c nude mice
Method: Male BALB/c nude mice (6 weeks old) were subcutaneously injected with log growth-phase of SW620 cells (1×10^6 cells in 0.1 ml PBS). Mice were treated orally after 7 days of transplantation with Compound 1 once a day. Body weight and tumor size were measured every 3 days. Tumors were measured and weighted. Tissues isolated from the nude mice were fixed with 4% paraformaldehyde. TdT-mediated dUTP nick end labeling assay was performed according to the manufacturer's instructions (In situ Cell Death Detection Kit; Roche).

## FC(F)(F)c1ccc([C+](c2c[nH]c3ccccc23)c2c[nH]c3ccccc23)cc1 [Compound 1, Bis(1H-indol-3-yl)(4-(trifluoromethyl)phenyl)methylium methanesulfonate]
[1]
  JC-1 green to red ratio (control 100%): 345%
Nur77−/−HeLa cells
  induction of PARP cleavage and caspase 3 activation: strongly suppressed
Nur77-LBD
  Kd: 100 nM
HeLa cells
  concentration inducing PARP cleavage (dose dependent study): submicromolar concentrations
Bcl-2−/−MEFs
  PARP cleavage: no apparent effect
Bcl-2−/− HeLa cells
  increase in mito-ROS relative to regular HeLa cells: smaller increase
MDA-MB-231 cancer cells
  IC50: < 500 nM
Bcl-2−/−MEF cells
  cells with chromatin condensation and nuclear fragmentation (DAPI): 14%
MDA-MB-231 cells
  intracellular mitochondrial reactive oxygen species (mito-ROS): marked increase
[2]
  apoptotic cells: 4.5%
Bcl-2−/−HeLa cells
  induction of PARP cleavage and caspase 3 activation: strongly suppressed
Nur77−/− HeLa cells
  increase in mito-ROS relative to regular HeLa cells: smaller increase
SW620 xenograft tumor; SW620 xenograft, compared to control tumor
  apoptosis in tumor specimens (TUNEL assay): extensive apoptosis
SW620 xenograft tumor; nude mice, oral, once a day (FIGS. 6A-6B)
  growth of SW620 xenograft tumor: inhibited the growth of SW620 xenograft tumor in a dose and time-dependent manner

From patent publication US20210024499A1, “OXIDIZED BIS(3-INDOLYL)METHANES AND USES THEREOF” (Sanford Burnam Prebys Medical Discovery Institute, priority 2018, published 2021)
